Results as given in the supplement of paper PMC10307832.

Assays:
Test in all cases: relative viability (nuclei count vs DMSO), 5 days (fraction); higher = more cells survive
GW-2580 + Navitoclax = compound: COC1=CC=C(C=C1)COC2=C(C=C(C=C2)CC3=CN=C(N=C3N)N)OC [GW-2580] + CC1(C)CCC(c2ccc(Cl)cc2)=C(CN2CCN(c3ccc(C(=O)NS(=O)(=O)c4ccc(N[C@H](CCN5CCOCC5)CSc5ccccc5)c(S(=O)(=O)C(F)(F)F)c4)cc3)CC2)C1 [Navitoclax] (partner 0.5 µM)
Outline: (§1)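 Relative viability is defined as nuclei in treated wells over nuclei in vehicle wells. Duplicate plates were run and medians reported. Lung cancer cell lines in 1536-well plates were dosed by pin tool one day after seeding, with one drug or with a fixed anchor-drug dose plus five library-drug doses (not always all listed) in √10 steps, and nuclei were counted after 5 days.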

GW-2580 + Dasatinib = compound: COC1=CC=C(C=C1)COC2=C(C=C(C=C2)CC3=CN=C(N=C3N)N)OC [GW-2580] + Cc1nc(Nc2ncc(C(=O)Nc3c(C)cccc3Cl)s2)cc(N2CCN(CCO)CC2)n1 [Dasatinib] (partner 0.075 µM)
Outline: as §1

Fedratinib + Tozasertib = compound: Cc1cnc(Nc2ccc(OCCN3CCCC3)cc2)nc1Nc1cccc(S(=O)(=O)NC(C)(C)C)c1 [Fedratinib] + Cc1cc(Nc2cc(N3CCN(C)CC3)nc(Sc3ccc(NC(=O)C4CC4)cc3)n2)n[nH]1 [Tozasertib] (partner 0.1 µM)
Outline: as §1

Fedratinib + Phenformin = compound: Cc1cnc(Nc2ccc(OCCN3CCCC3)cc2)nc1Nc1cccc(S(=O)(=O)NC(C)(C)C)c1 [Fedratinib] + N=C(N)NC(=N)NCCc1ccccc1 [Phenformin] (partner 250 µM)
Outline: as §1

Fedratinib + Pemetrexed = compound: Cc1cnc(Nc2ccc(OCCN3CCCC3)cc2)nc1Nc1cccc(S(=O)(=O)NC(C)(C)C)c1 [Fedratinib] + Nc1nc2[nH]cc(CCc3ccc(C(=O)N[C@@H](CCC(=O)O)C(=O)O)cc3)c2c(=O)[nH]1 [Pemetrexed] (partner 0.2 µM)
Outline: as §1

Row | Cell Line | relative viability (GW-2580 + Navitoclax; first compound 0.08 µM) | relative viability (GW-2580 + Navitoclax; first compound 0.8 µM) | relative viability (GW-2580 + Navitoclax; first compound 2.53 µM) | relative viability (GW-2580 + Navitoclax; first compound 8 µM) | relative viability (GW-2580 + Dasatinib; first compound 0.08 µM) | relative viability (GW-2580 + Dasatinib; first compound 0.8 µM) | relative viability (GW-2580 + Dasatinib; first compound 2.53 µM) | relative viability (GW-2580 + Dasatinib; first compound 8 µM) | relative viability (Fedratinib + Tozasertib; first compound 0.1 µM) | relative viability (Fedratinib + Tozasertib; first compound 0.3162 µM) | relative viability (Fedratinib + Tozasertib; first compound 1 µM) | relative viability (Fedratinib + Phenformin; first compound 0.1 µM) | relative viability (Fedratinib + Phenformin; first compound 0.3162 µM) | relative viability (Fedratinib + Phenformin; first compound 1 µM) | relative viability (Fedratinib + Pemetrexed; first compound 0.1 µM) | relative viability (Fedratinib + Pemetrexed; first compound 0.3162 µM) | relative viability (Fedratinib + Pemetrexed; first compound 1 µM)
1 | NCI-H1755 | 1.04 | 1.04 | 0.894 | 0.831 | 0.488 | 0.553 | 0.388 | 0.396 | 0.53 | 0.524 | 0.523 | 0.561 | 0.593 | 0.518 | 0.506 | 0.416 | 0.449
2 | NCI-H1793 | 0.433 | 0.266 | 0.833 | 0.415 | 0.415 | 0.451 | 0.355 | 0.399 | 0.263 | 0.353 | 0.288 | 0.27 | 0.178 | 0.312 | 0.81 | 0.847 | 0.724
3 | NCI-H1915 | 0.858 | 0.898 | 0.778 | 0.837 | 0.356 | 0.295 | 0.272 | 0.273 | 0.329 | 0.417 | 0.328 | 0.374 | 0.361 | 0.298 | 0.599 | 0.464 | 0.425
4 | NCI-H1944 | 1.09 | 1.1 | 1.03 | 0.988 | 0.207 | 0.224 | 0.203 | 0.212 | 0.25 | 0.225 | 0.209 | 0.194 | 0.228 | 0.213 | 0.665 | 0.643 | 0.624
5 | NCI-H1975 | 1.2 | 1.3 | 1.21 | 0.98 | 0.406 | 0.388 | 0.379 | 0.315 | 0.44 | 0.734 | 0.389 | 0.416 | 0.407 | 0.37 | 0.29 | 0.306 | 0.272
6 | NCI-H1993 | 0.932 | 1.14 | – | 0.948 | 0.611 | 0.606 | 0.524 | 0.568 | 0.58 | 0.575 | 0.596 | 0.508 | 0.476 | 0.493 | 0.523 | 0.513 | 0.589
7 | NCI-H2009 | 1.25 | 1.22 | 1.15 | 1.02 | 0.319 | 0.305 | 0.299 | 0.27 | 0.547 | 0.792 | 0.652 | 0.334 | 0.486 | 0.419 | 0.985 | 0.97 | 1.01
8 | NCI-H2023 | 0.914 | 1.06 | 0.973 | 1.01 | 0.636 | 0.652 | 0.542 | 0.587 | 0.226 | 0.289 | 0.281 | 0.431 | 0.463 | 0.456 | 0.272 | 0.254 | 0.158
9 | NCI-H2085 | 1.09 | 1.11 | 1.03 | 1.07 | 0.277 | 0.217 | 0.25 | 0.258 | 0.478 | 0.827 | 0.764 | 0.671 | 0.749 | 0.688 | 0.88 | 1.06 | 0.805
10 | NCI-H2087 | 0.956 | 1.16 | 0.886 | 0.88 | 1.11 | 0.846 | 0.785 | 0.774 | 0.205 | 0.206 | 0.179 | 0.45 | 0.477 | 0.379 | 0.739 | 0.651 | 0.731
11 | NCI-H2126 | 0.915 | 0.875 | 0.808 | 0.921 | 0.599 | 0.736 | 0.627 | 0.522 | 0.429 | 0.818 | 0.781 | 0.532 | 0.569 | 0.498 | 0.592 | 0.657 | 0.626
12 | NCI-H2170 | 0.5 | 0.68 | 0.467 | 0.657 | 0.752 | 0.769 | 0.587 | 0.672 | 0.481 | 0.743 | 0.599 | 0.333 | 0.402 | 0.386 | 0.284 | 0.27 | 0.253
13 | NCI-H2228 | 1.01 | 0.84 | 0.869 | 0.723 | 0.557 | 0.551 | 0.441 | 0.488 | 0.188 | 0.221 | 0.227 | 0.226 | 0.252 | 0.358 | 0.331 | 0.284 | 0.294
14 | NCI-H2347 | 0.899 | 0.777 | 0.708 | 0.804 | 0.341 | 0.294 | 0.244 | 0.271 | 0.368 | 0.602 | 0.483 | 0.508 | 0.225 | 0.494 | 0.335 | 0.419 | 0.433
15 | NCI-H2405 | 0.888 | 0.742 | 0.928 | 0.66 | 0.203 | 0.205 | 0.222 | 0.213 | 0.418 | 0.705 | 0.612 | 0.315 | 0.412 | 0.446 | 1.07 | 1.12 | 0.863
16 | NCI-H3122 | 1.04 | 1.06 | 1.13 | 0.892 | 0.947 | 1.01 | 0.655 | 0.812 | 0.259 | 0.362 | 0.299 | 0.292 | 0.407 | 0.339 | 0.186 | 0.189 | 0.197
17 | PC-3 [JPC-3] | 0.807 | 0.854 | 0.72 | 0.779 | 0.986 | 1.14 | 0.845 | 1.03 | 0.833 | 0.894 | 0.864 | 0.508 | 0.466 | 0.482 | 1.04 | 1.23 | 1.03
18 | PC-14 | 1.07 | 1.05 | 0.905 | 1.05 | 0.347 | 0.281 | 0.228 | 0.218 | 0.436 | 0.59 | 0.583 | 0.427 | 0.676 | 0.386 | 0.124 | 0.132 | 0.131
